Experimental data taken from patent US9611221B2, “Histone demethylase inhibitors” (CELGENE QUANTICEL RESEARCH, INC., priority 2012, dated 2017).

target: Jarid1A (Homo sapiens (Human), UniProt P29375); assay: Jarid1A in vitro enzyme inhibition assay (TR-FRET); type: biochemical; conditions: 1 nM Jarid1A, 300 nM H3K4me3-biotin peptide, 2 μM alpha-ketoglutaric acid
Excerpt: (§1) This assay determines the ability of a test compound to inhibit Jarid1A, Jarid1B, and JMJD2C demethylase activity. Baculovirus expressed Jarid1A (GenBank Accession #NM_001042603, AA1-1090) was purchased from BPS Bioscience (Cat#50110). Baculovirus expressed Jarid1B (GenBank Accession #NM_006618, AA 2-751) was purchased from BPS Bioscience (Cat #50121) or custom made by MolecularThroughput. Baculovirus expressed JMJD2C (GenBank Accession #BC143571, AA 2-372) was purchased from BPS Bioscience (Cat#50105).
(§2) The enzymatic assay of Jarid1A activity is based upon Time Resolved-Fluorescence Resonance Energy Transfer (TR-FRET) detection. The ability of test compounds to inhibit the activity of Jarid1A was determined in 384-well plate format under the following reaction conditions: 1 nM Jarid1A, 300 nM H3K4me3-biotin labeled peptide (Anaspec cat #64357), 2 μM alpha-ketoglutaric acid in assay buffer of 50 mM HEPES, pH7.3, 0.005% Brij35, 0.5 mM TCEP, 0.2 mg/ml BSA, 50 μM sodium L-ascorbate, and 2 μM ammonium iron(II) sulfate. Reaction product was determined quantitatively by TR-FRET after the addition of detection reagent Phycolink Streptavidin-allophycocyanin (Prozyme) and Europium-anti-mono- or di-methylated histone H3 lysine 4 (H3K4me1-2) antibody (PerkinElmer) in the presence of 5 mM EDTA in LANCE detection buffer (PerkinElmer) at a final concentration of 25 nM and 1 nM, respectively.
(§3) The reaction mixture was incubated at room temperature for 30 minutes, and terminated by the addition of 6 μl of 5 mM EDTA in LANCE detection buffer containing 50 nM Phycolink Streptavidin-allophycocyanin and 2 nM Europium-anti-H3K4me1-2 antibody. Plates were read by EnVisionMultilabel Reader in TR-FRET mode (excitation at 320 nm, emission at 615 nm and 665 nm) after 1 hour incubation at room temperature. A ratio was calculated (665/615) for each well and fitted to determine inhibition constant (IC50).

Jarid1A, sequence (P29375 1-1090): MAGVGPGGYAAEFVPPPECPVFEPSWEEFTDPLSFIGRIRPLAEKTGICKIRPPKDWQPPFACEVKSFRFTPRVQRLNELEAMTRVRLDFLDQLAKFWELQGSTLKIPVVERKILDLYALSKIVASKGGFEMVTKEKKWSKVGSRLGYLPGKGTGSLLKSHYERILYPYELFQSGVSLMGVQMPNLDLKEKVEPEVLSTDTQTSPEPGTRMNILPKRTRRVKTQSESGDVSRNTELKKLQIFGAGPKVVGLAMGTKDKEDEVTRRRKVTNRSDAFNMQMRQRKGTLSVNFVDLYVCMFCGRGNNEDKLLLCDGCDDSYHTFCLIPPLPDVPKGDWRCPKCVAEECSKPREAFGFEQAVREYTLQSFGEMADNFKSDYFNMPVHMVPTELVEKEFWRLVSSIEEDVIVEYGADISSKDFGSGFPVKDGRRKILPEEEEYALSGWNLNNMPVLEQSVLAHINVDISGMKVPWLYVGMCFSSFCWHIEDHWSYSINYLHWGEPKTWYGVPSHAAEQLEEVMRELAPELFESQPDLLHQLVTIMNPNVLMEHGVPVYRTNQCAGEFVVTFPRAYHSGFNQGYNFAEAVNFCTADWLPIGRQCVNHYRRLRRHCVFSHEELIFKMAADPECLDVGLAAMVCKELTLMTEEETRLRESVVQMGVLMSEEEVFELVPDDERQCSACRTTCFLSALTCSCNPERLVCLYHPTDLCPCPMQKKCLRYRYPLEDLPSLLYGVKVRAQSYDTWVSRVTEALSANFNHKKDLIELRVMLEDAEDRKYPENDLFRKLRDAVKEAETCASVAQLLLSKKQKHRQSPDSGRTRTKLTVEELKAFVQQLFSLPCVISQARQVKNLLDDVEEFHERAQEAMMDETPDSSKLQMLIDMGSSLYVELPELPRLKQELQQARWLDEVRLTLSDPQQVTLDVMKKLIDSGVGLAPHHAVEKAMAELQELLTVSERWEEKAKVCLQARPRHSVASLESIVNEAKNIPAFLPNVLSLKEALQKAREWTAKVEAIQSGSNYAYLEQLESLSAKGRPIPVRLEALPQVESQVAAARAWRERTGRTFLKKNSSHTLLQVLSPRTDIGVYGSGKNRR

| Structure (SMILES) | IC50 |
| --- | --- |
| O=C(O)c1ccncc1NCc1cccc(C(F)(F)F)c1 [Example 32, 3-{[3-(trifluoromethyl)benzyl]amino}pyridine-4-carboxylic acid] | ≤ 100 nM |
| O=C(O)c1ccncc1NCc1ccccc1Oc1ccccc1 [Example 33, 3-[(2-phenoxybenzyl)amino]pyridine-4-carboxylic acid] | ≤ 100 nM |
| Cc1ccc(C2CC2)c(CNc2cnccc2C(=O)O)c1 [Example 34, 3-[(2-cyclopropyl-5-methylbenzyl)amino]pyridine-4-carboxylic acid] | ≤ 100 nM |

Continued, values first:

| IC50 | Structure (SMILES) |
| --- | --- |
| ≤ 100 nM | O=C(O)c1ccncc1NCc1cnccc1C1CC1 [Example 31, 3-{[(4-cyclopropylpyridin-3-yl)-methyl]amino}pyridine-4-carboxylic acid] |

target: Jarid1B (Homo sapiens (Human), UniProt Q9UGL1); assay: Jarid1B in vitro enzyme inhibition assay (TR-FRET); type: biochemical; conditions: 0.8 nM Jarid1B, 300 nM H3K4me3-biotin peptide, 2 μM alpha-ketoglutaric acid
Excerpt: as §1
as §2, with “The” for “The enzymatic assay of Jarid1A activity is based upon Time Resolved-Fluorescence Resonance Energy Transfer (TR-FRET) detection. The”, “of Jarid1B” for “of Jarid1A”, “conditions: 0.8” for “conditions: 1”, “nM Jarid1B,” for “nM Jarid1A,”
as §3

Jarid1B, sequence (Q9UGL1 2-751): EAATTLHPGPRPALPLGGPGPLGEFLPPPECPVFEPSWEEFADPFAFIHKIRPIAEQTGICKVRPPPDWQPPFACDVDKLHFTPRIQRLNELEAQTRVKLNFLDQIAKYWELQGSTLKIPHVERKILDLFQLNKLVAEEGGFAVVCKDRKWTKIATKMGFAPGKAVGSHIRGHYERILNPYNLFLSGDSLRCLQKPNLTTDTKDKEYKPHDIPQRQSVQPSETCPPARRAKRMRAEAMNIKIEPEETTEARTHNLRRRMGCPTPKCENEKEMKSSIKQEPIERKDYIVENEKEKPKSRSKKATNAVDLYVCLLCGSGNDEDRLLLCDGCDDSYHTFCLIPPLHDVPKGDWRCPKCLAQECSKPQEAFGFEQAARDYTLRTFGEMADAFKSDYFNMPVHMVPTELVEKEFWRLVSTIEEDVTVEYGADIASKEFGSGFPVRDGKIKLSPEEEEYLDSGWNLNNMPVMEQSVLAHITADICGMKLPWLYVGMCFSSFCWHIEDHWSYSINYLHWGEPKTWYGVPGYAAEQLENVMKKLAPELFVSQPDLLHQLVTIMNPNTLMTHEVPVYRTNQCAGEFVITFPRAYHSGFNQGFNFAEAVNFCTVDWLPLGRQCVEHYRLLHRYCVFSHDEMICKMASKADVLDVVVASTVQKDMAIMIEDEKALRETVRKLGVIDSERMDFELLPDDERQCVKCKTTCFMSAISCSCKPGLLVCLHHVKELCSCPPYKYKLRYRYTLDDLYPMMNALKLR

| Structure (SMILES) | IC50 |
| --- | --- |
| O=C(O)c1ccncc1NCc1ccc(-c2ccccc2)cc1 [Example 9, 3-[(biphenyl-4-ylmethyl)amino]pyridine-4-carboxylic acid] | 100 to 1000 nM |
| O=C(O)c1ccncc1NCc1ccc(Oc2ccccc2)cc1 [Example 12, 3-[(4-phenoxybenzyl)amino]pyridine-4-carboxylic acid] | ≤ 100 nM |
| CN(C)Cc1ccccc1CNc1cnccc1C(=O)O [Example 13, 3-({2-[(dimethylamino)methyl]benzyl}amino)pyridine-4-carboxylic acid] | ≤ 100 nM |
| O=C(O)c1ccncc1NCc1ccc(Cl)c(Cl)c1 [Example 14] | ≤ 100 nM |
| Cc1cc(Cl)ccc1CNc1cnccc1C(=O)O [Example 15, 3-[(4-chloro-2-methylbenzyl)amino]pyridine-4-carboxylic acid] | ≤ 100 nM |
| COc1ccc(CNc2cnccc2C(=O)O)c(OC)c1 [Example 16, 3-[(2,4-dimethoxyoxybenzyl)amino]pyridine-4-carboxylic acid] | ≤ 100 nM |
| O=C(O)c1ccncc1NCc1ccccc1C1CC1 [Example 19, 3-[(2-cyclopropylbenzyl)amino]pyridine-4-carboxylic acid] | ≤ 100 nM |
| O=C(O)c1ccncc1NCc1cccc(C(F)(F)F)c1 [Example 32, 3-{[3-(trifluoromethyl)benzyl]amino}pyridine-4-carboxylic acid] | ≤ 100 nM |
| O=C(O)c1ccncc1NCc1ccccc1Oc1ccccc1 [Example 33, 3-[(2-phenoxybenzyl)amino]pyridine-4-carboxylic acid] | ≤ 100 nM |
| Cc1ccc(C2CC2)c(CNc2cnccc2C(=O)O)c1 [Example 34, 3-[(2-cyclopropyl-5-methylbenzyl)amino]pyridine-4-carboxylic acid] | ≤ 100 nM |
| O=C(O)c1ccncc1NCC1CCCc2ccc(F)cc21 (stereo not drawn) [Example 50, 3-{[(7-fluoro-1,2,3,4-tetrahydronaphthalen-1-yl)methyl]amino}pyridine-4-carboxylic acid] | ≤ 100 nM |

Now from value to compound:

| IC50 | Structure (SMILES) |
| --- | --- |
| ≤ 100 nM | COc1ccc(CNc2cnccc2C(=O)O)cc1 [Example 7, 3-[(4-methoxybenzyl)amino]pyridine-4-carboxylic acid] |
| ≤ 100 nM | O=C(O)c1ccncc1NCc1ccc(Cl)cc1 [Example 10, 3-[(4-chlorobenzyl)amino]pyridine-4-carboxylic acid] |
| ≤ 100 nM | O=C(O)c1ccncc1NCc1ccccc1O [Example 17, 3-[(2-hydroxybenzyl)amino]pyridine-4-carboxylic acid] |
| ≤ 100 nM | O=C(O)c1ccncc1NCc1cnccc1C1CC1 [Example 31, 3-{[(4-cyclopropylpyridin-3-yl)-methyl]amino}pyridine-4-carboxylic acid] |

target: JMJD2C (Homo sapiens (Human), UniProt Q9H3R0); assay: JMJD2C in vitro enzyme inhibition assay (TR-FRET); type: biochemical; conditions: 0.3 nM JMJD2C, 300 nM H3K9me3-biotin peptide, 2 μM alpha-ketoglutaric acid
Excerpt: as §1
The ability of test compounds to inhibit the activity of JMJD2C was determined in 384-well plate format under the following reaction conditions: 0.3 nM JMJD2C, 300 nM H3K9me3-biotin labeled peptide (Anaspec cat #64360), 2 μM alpha-ketoglutaric acid in assay buffer of 50 mM HEPES, pH7.3, 0.005% Brij35, 0.5 mM TCEP, 0.2 mg/ml BSA, 50 μM sodium L-ascorbate, and 2 μM ammonium iron(II) sulfate. Reaction product was determined quantitatively by TR-FRET after the addition of detection reagent Phycolink Streptavidin-allophycocyanin (Prozyme) and Europium-anti-di-methylated histone H3 lysine 9 (H3K9me2) antibody (PerkinElmer) in the presence of 5 mM EDTA in LANCE detection buffer (PerkinElmer) at a final concentration of 50 nM and 1 nM, respectively.
as §3, with “containing 100” for “containing 50”, “nM Europium-anti-H3K9me2” for “nM Europium-anti-H3K4me1-2”

JMJD2C, sequence (Q9H3R0 2-372): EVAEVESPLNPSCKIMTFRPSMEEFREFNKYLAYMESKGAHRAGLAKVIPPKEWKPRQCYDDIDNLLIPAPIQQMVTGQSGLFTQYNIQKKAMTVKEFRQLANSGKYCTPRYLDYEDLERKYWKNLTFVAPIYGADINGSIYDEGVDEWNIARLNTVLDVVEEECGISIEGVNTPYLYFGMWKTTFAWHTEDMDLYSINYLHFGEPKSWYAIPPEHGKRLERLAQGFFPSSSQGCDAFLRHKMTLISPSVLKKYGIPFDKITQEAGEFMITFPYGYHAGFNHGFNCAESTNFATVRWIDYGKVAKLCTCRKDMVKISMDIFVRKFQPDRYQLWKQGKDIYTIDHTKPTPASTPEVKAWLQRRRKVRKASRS

| Structure (SMILES) | IC50 |
| --- | --- |
| O=C(O)c1ccncc1NCc1ccc(-c2ccccc2)cc1 [Example 9, 3-[(biphenyl-4-ylmethyl)amino]pyridine-4-carboxylic acid] | 1000 to 10000 nM |
| O=C(O)c1ccncc1NCc1ccc(Oc2ccccc2)cc1 [Example 12, 3-[(4-phenoxybenzyl)amino]pyridine-4-carboxylic acid] | 100 to 1000 nM |
| CN(C)Cc1ccccc1CNc1cnccc1C(=O)O [Example 13, 3-({2-[(dimethylamino)methyl]benzyl}amino)pyridine-4-carboxylic acid] | ≤ 100 nM |
| O=C(O)c1ccncc1NCc1ccc(Cl)c(Cl)c1 [Example 14] | ≤ 100 nM |
| Cc1cc(Cl)ccc1CNc1cnccc1C(=O)O [Example 15, 3-[(4-chloro-2-methylbenzyl)amino]pyridine-4-carboxylic acid] | ≤ 100 nM |
| COc1ccc(CNc2cnccc2C(=O)O)c(OC)c1 [Example 16, 3-[(2,4-dimethoxyoxybenzyl)amino]pyridine-4-carboxylic acid] | 100 to 1000 nM |
| O=C(O)c1ccncc1NCc1ccccc1C1CC1 [Example 19, 3-[(2-cyclopropylbenzyl)amino]pyridine-4-carboxylic acid] | ≤ 100 nM |
| O=C(O)c1ccncc1NCc1cccc(C(F)(F)F)c1 [Example 32, 3-{[3-(trifluoromethyl)benzyl]amino}pyridine-4-carboxylic acid] | ≤ 100 nM |
| O=C(O)c1ccncc1NCc1ccccc1Oc1ccccc1 [Example 33, 3-[(2-phenoxybenzyl)amino]pyridine-4-carboxylic acid] | 100 to 1000 nM |
| Cc1ccc(C2CC2)c(CNc2cnccc2C(=O)O)c1 [Example 34, 3-[(2-cyclopropyl-5-methylbenzyl)amino]pyridine-4-carboxylic acid] | 100 to 1000 nM |
| O=C(O)c1ccncc1NCC1CCCc2ccc(F)cc21 (stereo not drawn) [Example 50, 3-{[(7-fluoro-1,2,3,4-tetrahydronaphthalen-1-yl)methyl]amino}pyridine-4-carboxylic acid] | 100 to 1000 nM |

Other lines, results leading:

| IC50 | Structure (SMILES) |
| --- | --- |
| ≤ 100 nM | COc1ccc(CNc2cnccc2C(=O)O)cc1 [Example 7, 3-[(4-methoxybenzyl)amino]pyridine-4-carboxylic acid] |
| ≤ 100 nM | O=C(O)c1ccncc1NCc1ccc(Cl)cc1 [Example 10, 3-[(4-chlorobenzyl)amino]pyridine-4-carboxylic acid] |
| ≤ 100 nM | O=C(O)c1ccncc1NCc1ccccc1O [Example 17, 3-[(2-hydroxybenzyl)amino]pyridine-4-carboxylic acid] |
| ≤ 100 nM | O=C(O)c1ccncc1NCc1cnccc1C1CC1 [Example 31, 3-{[(4-cyclopropylpyridin-3-yl)-methyl]amino}pyridine-4-carboxylic acid] |
